Laboratory results: PubChem BioAssay (NCI)
“And” between values parts separate entries of the source, which are not always exact repeats. Equal values may be shown once.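 96-well plates; 48 h exposure; 5 concentrations. Endpoints by linear interpolation between flanking doses. Not reached: highest tested concentration assigned. Here, GI50 denotes the concentration required for 50% inhibition of growth. Definition used: TGI = concentration required for complete inhibition of growth.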

Assays:
Assay in all cases: NCI tumour cell line growth inhibition, 48 h
[1] = tested on: OVCAR-3 ovarian
[2] = tested on: HOP-18 NSCLC
[3] = tested on: SN12C renal
[4] = tested on: NCI-H226 lung
[5] = tested on: HOP-92 NSCLC
[6] = tested on: SK-MEL-5 melanoma
[7] = tested on: U251 CNS
[8] = tested on: MOLT-4 leukemia
[9] = tested on: HT29 colon
[10] = tested on: HL-60(TB) leukemia
[11] = tested on: HCT-116 colon
[12] = tested on: OVCAR-8 ovarian
[13] = tested on: NCI-H460 lung
[14] = tested on: NCI-H522 lung
[15] = tested on: KM20L2 colon
[16] = tested on: K-562 leukemia
[17] = tested on: OVCAR-5 ovarian
[18] = tested on: KM12 colon
[19] = tested on: SF-268 CNS
[20] = tested on: M14 melanoma
[21] = tested on: 786-0 renal
[22] = tested on: SNB-19 CNS
[23] = tested on: A498 renal
[24] = tested on: UACC-62 melanoma
[25] = tested on: ACHN renal
[26] = tested on: CAKI-1 renal
[27] = tested on: EKVX NSCLC
[28] = tested on: RPMI-8226 leukemia
[29] = tested on: SW-620 colon
[30] = tested on: SNB-78 CNS
[31] = tested on: MALME-3M melanoma
[32] = tested on: A549 NSCLC
[33] = tested on: DLD-1 colon
[34] = tested on: M19-MEL melanoma
[35] = tested on: RXF-631 renal
[36] = tested on: SR leukemia
[37] = tested on: NCI-H23 lung
[38] = tested on: HCC-2998 colon
[39] = tested on: SK-MEL-2 melanoma
[40] = tested on: UO-31 renal
[41] = tested on: DMS 273 small cell lung
[42] = tested on: SK-MEL-28 melanoma
[43] = tested on: DMS 114 small cell lung
[44] = tested on: UACC-257 melanoma
[45] = tested on: SF-295 CNS
[46] = tested on: HOP-62 NSCLC
[47] = tested on: COLO 205 colon
[48] = tested on: IGROV1 ovarian
[49] = tested on: LXFL 529 NSCLC
[50] = tested on: TK-10 renal
[51] = tested on: CCRF-CEM leukemia
[52] = tested on: RXF 393 renal
[53] = tested on: XF 498 CNS
[54] = tested on: HCT-15 colon
[55] = tested on: SK-OV-3 ovarian
[56] = tested on: SNB-75 CNS
[57] = tested on: T-47D breast
[58] = tested on: MDA-N
[59] = tested on: PC-3 prostate
[60] = tested on: MDA-MB-435
[61] = tested on: BT-549 breast
[62] = tested on: SF-539 CNS
[63] = tested on: LOX IMVI melanoma
[64] = tested on: HS 578T breast
[65] = tested on: SN12K1 renal
[66] = tested on: P388/ADR leukemia
[67] = tested on: MCF7 breast
[68] = tested on: DU-145 prostate
[69] = tested on: NCI/ADR-RES ovarian
[70] = tested on: OVCAR-4 ovarian
[71] = tested on: MDA-MB-231 breast
[72] = tested on: P388 leukemia

CCOC(=O)c1cnc2c(ccc3[nH]n(C)nc32)c1=O
TGI [1]: > 100 µM | TGI [2]: > 100000 nM | TGI [3]: > 100000 nM | TGI [4]: > 100 µM | TGI [5]: > 100000 nM | TGI [6]: > 100 µM | TGI [7]: 68900 nM | TGI [8]: > 100 µM | TGI [9]: > 100 µM | TGI [10]: > 100000 nM | TGI [11]: 61.4 µM | TGI [12]: > 100 µM | TGI [13]: > 100000 nM | TGI [14]: > 100000 nM | TGI [15]: > 100000 nM | TGI [16]: > 100 µM | TGI [17]: > 100000 nM | TGI [18]: > 100000 nM | TGI [19]: > 100000 nM | TGI [20]: > 100 µM | TGI [21]: > 100 µM | TGI [22]: > 100000 nM | TGI [23]: > 100000 nM | TGI [24]: > 100000 nM | TGI [25]: > 100 µM | TGI [26]: > 100000 nM | TGI [27]: > 100000 nM | TGI [28]: 67500 nM | TGI [29]: 36.8 µM | TGI [30]: 38.6 µM | TGI [31]: > 100000 nM | TGI [32]: > 100 µM | TGI [33]: > 100000 nM | TGI [34]: > 100000 nM | TGI [35]: > 100 µM | TGI [36]: > 100000 nM | TGI [37]: > 100000 nM | TGI [38]: > 100000 nM | TGI [39]: 46100 nM | TGI [40]: > 100 µM | TGI [41]: 73.4 µM | TGI [42]: > 100 µM | TGI [43]: > 100000 nM | TGI [44]: > 100000 nM | TGI [45]: > 100 µM | TGI [46]: > 100000 nM | TGI [47]: > 100 µM | TGI [48]: > 100000 nM | TGI [49]: > 100 µM | TGI [50]: > 100 µM | TGI [51]: > 100 µM | TGI [52]: 95500 nM | TGI [53]: > 100000 nM | TGI [54]: > 100 µM | TGI [55]: > 100000 nM | TGI [56]: > 100000 nM

COC(=O)C[C@](O)(CCCC(C)(C)O)C(=O)O[C@@H]1C(OC)=C[C@]23CCCN2CCc2cc4c(cc2[C@H]13)OCO4
GI50 [1]: 251 nM and 28.6 nM | TGI [2]: 418 nM | GI50 [57]: 29.7 nM | TGI [58]: > 25 µM | GI50 [3]: 40.5 nM | TGI [3]: 666 nM and 526 nM | GI50 [4]: 11.2 nM | GI50 [5]: 22.4 nM | TGI [5]: 633 nM and 156 nM | GI50 [6]: 14.9 nM | GI50 [7]: 22.3 nM | TGI [7]: 564 nM and 72.8 nM | GI50 [9]: 18.3 nM | GI50 [59]: 28.8 nM | GI50 [10]: 24.9 nM | TGI [10]: 237 nM and 75.8 nM | GI50 [11]: 134 nM and 15.3 nM | GI50 [12]: 28.7 nM | GI50 [60]: 27.9 nM | GI50 [61]: 28.8 nM | GI50 [13]: 16 nM and < 10 nM | TGI [13]: 270 nM and 88 nM | GI50 [14]: 48.2 nM and < 10 nM | TGI [14]: 186 nM and 28.8 nM | GI50 [62]: 19.5 nM | TGI [62]: 264 nM and 53.9 nM | TGI [15]: 338 nM | GI50 [16]: 29.2 nM | GI50 [17]: 48.9 nM | TGI [17]: 2930 nM and 556 nM | GI50 [18]: 32.6 nM | TGI [18]: 885 nM and 182 nM | GI50 [19]: 46 nM | TGI [19]: 990 nM and 446 nM | GI50 [20]: 22.8 nM | GI50 [21]: 33 nM | GI50 [22]: 21.4 nM | TGI [22]: 1290 nM and 1390 nM | GI50 [23]: 17.3 nM | TGI [23]: 146 nM and 39.6 nM | GI50 [24]: 30 nM | TGI [24]: 712 nM and 137 nM | GI50 [25]: 40.7 nM | TGI [25]: 4.64 µM and 0.541 µM | GI50 [26]: 252 nM | TGI [26]: 1610 nM and 1200 nM | GI50 [27]: 48.6 nM | TGI [27]: 688 nM and 472 nM | GI50 [28]: 28.8 nM | TGI [28]: 419 nM and 840 nM | GI50 [63]: 12.9 nM | GI50 [64]: 33.3 nM | GI50 [29]: 29.3 nM | TGI [29]: 2.59 µM and 5.05 µM | TGI [30]: 0.285 µM | GI50 [31]: 19.6 nM | TGI [31]: 268 nM and 63.5 nM | GI50 [32]: 95.3 nM and 23.8 nM | TGI [33]: 228 nM | TGI [65]: 48.1 nM | TGI [34]: 86.6 nM | TGI [36]: 751 nM | GI50 [37]: 24.6 nM | TGI [37]: 548 nM and 86 nM | GI50 [38]: 13.7 nM | TGI [38]: 246 nM and 42.8 nM | TGI [66]: 1350 nM | GI50 [39]: 45.5 nM | TGI [39]: 994 nM and 198 nM | GI50 [67]: < 10 nM | TGI [67]: 377 nM and 66.6 nM | GI50 [40]: 181 nM | TGI [40]: 2.01 µM and 3.13 µM | TGI [41]: < 0.0204 µM | GI50 [42]: 22.2 nM | GI50 [68]: 34.3 nM | TGI [43]: 16.2 nM | GI50 [44]: 205 nM and 23.2 nM | TGI [44]: 839 nM and 88.1 nM | GI50 [69]: 934 nM | TGI [69]: 14.6 µM | GI50 [45]: 23.7 nM | GI50 [46]: 36.3 nM | TGI [46]: 366 nM and 265 nM | GI50 [47]: 28.3 nM | GI50 [48]: 28.4 nM | TGI [48]: 1400 nM and 795 nM | GI50 [50]: 34.7 nM | GI50 [51]: 28.2 nM | GI50 [52]: 21.7 nM | TGI [52]: 503 nM and 107 nM | TGI [53]: 39.1 nM | GI50 [54]: 94.4 nM | TGI [54]: 1.85 µM and 4.71 µM | GI50 [70]: 22.1 nM | TGI [70]: 1150 nM and 149 nM | GI50 [55]: 28.4 nM | TGI [55]: 1820 nM and 395 nM | GI50 [56]: 23.5 nM | TGI [56]: 657 nM and 93.1 nM | GI50 [71]: 87 nM | TGI [72]: 10.1 nM
